# Assays:
# Format in all cases: cell-based, human
# [1] = tested on: PD-L1 RNA expression; assay: PD-L1 RNA expression by qRT-PCR in treated NSCLC cell lines (FIG. 3, 4A)
# Protocol: (§1) NSCLC cell lines were procured from American Type Cell Culture (ATCC) or academic sources and cultured in RPMI 1640 medium supplemented with 10% fetal bovine serum (FBS) and 2 mM L-glutamine. Cells were detached for splitting and/or experimental analysis following a PBS wash and incubation with Accutase detachment medium (Sigma). Cells were treated with 0.1 mM trichostatin A (“TSA,” Sigma) and/or 1 ng/mL interferon gamma (IFNγ) for 24 hours and 1 mM 5-azacitidine-dC (5-aza-dC, Sigma), for 3 days qd (i.e., once a day) or 6 days q2d (i.e., every other day).
# (§2) Buffer RLT Plus (Qiagen) was used to lyse the cells for RNA and DNA extraction from the same lysate using the AllPrep DNA/RNA Mini Kit (Qiagen). RNA expression was analyzed by microarray on the GeneChip Human Genome U133 Plus 2.0 Array (Affymetrix) by Asuragen, Inc, and by qPCR using TaqMan Gene Expression Assays (Life Technologies). Data was analyzed using Genomics Suite (Partek), Spotfire (TIBCO), JMP (SAS), and IPA (Ingenuity). DNA was analyzed on the INFINIUM® HumanMethylation450 BeadChip (Illumina). DNA was bisulfite-modified using the Zymo DNA Gold Methylation kit (Zymo Research) and amplified with bisulfite specific sequencing primers targeting the CD274 promoter region. PCR products were TA-subcloned and sequenced using standard methods (ABI). ABI sequence files were analyzed using BIQ Analyzer software (C. Bock).
# Cells from each of the cell lines were exposed to one of five conditions: (1) no treatment; (2) treatment with 1 mM 5-azacitidine-dC (5-aza-dC, a DNA demethylation agent); (3) treatment with 0.1 mM trichostatin A (TSA, a class I and class II mammalian histone […]); (4) treatment with 1 ng/mL interferon gamma (IFNg); or (5) treatment with a combination of 5-aza-dC, TSA, and IFNg. PD-L1 RNA expression was then measured by qRT-PCR.
# [2] = tested on: PD-L1 expression; assay: PD-L1 expression after 5-aza-dC treatment of the CGP NSCLC cell line panel (FIG. 6C, 6D)
# Protocol: as §1, §2
# NSCLC cell lines from the Cancer Genome Project (CGP) were used to create a scatter plot directly comparing smoothened CpG1 and CpG5 methylation (M-value) on the X axis and PD-L1 expression (RNA-seq, Log 2-count) on the Y axis. […] PD-L1 baseline expression in these cell lines is highly affected by the level of promoter methylation. The CGP cell lines analyzed in FIG. 6A were then categorized into three methylation groups: (1) low (i.e., low to no methylation at both CpG1 and CpG5), (2) intermediate (i.e., CpG1 or CpG5 site methylated), or (3) high (CpG1 and CpG5 both methylated). These groups were plotted on the X axis, with basal PD-L1 expression by RNA-seq plotted on the Y and median expression shown for each group. […] Group (1) (i.e., low) had the highest median PD-L1 expression, with Group (2) (i.e., intermediate) and Group (3) (i.e., high) methylation groups showing lower median PD-L1 expression.
# The cell lines in the CPG NSCLC cell line panel were then treated with 5-aza-dC in order to the effect global demethylation would have on PD-L1 expression in a dataset with a larger number of cell lines. […] Additionally, two cell lines in this panel are known to have been raised from two separate samples from one patient, H1993 (low) and H2073 (intermediate).
# [3] = tested on: PD-L1 protein expression; assay: Surface PD-L1 protein expression by FACS after IFNg treatment (FIG. 4A)
# Protocol: as §1
# For FACS analysis, cells were detached then washed twice in FBS Staining Buffer (BD Biosciences). Cells were then stained with either PE-conjugated anti-human PD-L1 or isotype control (BD Biosciences) and then washed and analyzed on the FACSCanto II Analyzer (BD Biosciences).
# PD-L1 protein expression loosely correlated with RNA expression in this subset of cell lines, both at baseline and following IFNg stimulation. […] In the A427 cell line, PD-L1 protein expression remained low. In the H292 and H358 cell lines, PD-L1 protein expression increased 3-4 fold, and in H322T, PD-L1 protein expression increased more than 48-fold as compared to baseline levels. […] As discussed above, baseline levels of PD-L1 protein in H322T were low.
# [4] = tested on: STAT1; assay: Western blot of IFNg/JAK/STAT signaling pathway: STAT1
# Protocol: (§3) Protein lysates were generated using Cell Extraction Buffer (Life Technologies), supplemented with SigmaFAST Protease Inhibitor Tablets (Sigma) and Phosphatase Inhibitor Cocktail 1 and 2 (Sigma). Lysates centrifuged at 20,000×g for 10 minutes at 4° C., and the supernatants were then removed for analysis by Western Blot (WB). Samples were treated with NuPage Novex LDS and SRA Buffers (Life Technologies) and loaded onto a Bis-Tris Gel (Life Technologies) alongside SeeBlue Plus2 molecular weight standard (Life Technologies). Gels were transferred to nitrocellulose membranes using the iBlot system (Life Technologies) and then blocked with Odyssey Blocking Buffer (LI-COR) for 1 hour at room temperature. Gels were stained with antibodies against human PD-L1 (in-house), β-actin (Sigma); p/t STAT1, p-STAT3-Y705, p-STAT3-5727, and t-STAT3 (all Cell Signaling) diluted in Odyssey Blocking Buffer+0.01% Tween-20. Primary antibodies were detected secondary antibodies from LI-COR in Odyssey Blocking Buffer+0.01% Tween-20+0.001% SDS and analyzed on the Odyssey CLx system (LI-COR).
# Next, western blots were performed to determine whether the IFNg/JAK/STAT signaling pathway plays a role in the IFNg-mediated induction of PD-L1 transcript and protein levels in A427, H322T, H292, and H358. […]
# [5] = tested on: STAT3; assay: Western blot of IFNg/JAK/STAT signaling pathway: STAT3
# Protocol: as §3
# Next, western blots were performed to determine whether the IFNg/JAK/STAT signaling pathway plays a role in the IFNg-mediated induction of PD-L1 transcript and protein levels in A427, H322T, H292, and H358. Briefly, cells from A427, H322T, H292, and H358 were either (a) untreated; (b) treated with IFNg for 30 minutes; or (c) treated with IFNg for 24 hours. The cells were then processed into protein lysates and run out on gels, blotted and probed with the following antibodies: (1) anti-phospho-STAT1; (2) anti-total-STAT1: (3) anti-phospho-STAT3-Y705; (4) anti-phospho-STAT3-S727; (5) anti-total-STAT3; and (6) β-actin (loading control). […] STAT3 was further activated by the mTOR and MAPK pathways at S727.
# Next, the relationship between PD-L1 promoter methylation and the IFNg/JAK/STAT pathway was investigated in A427 and H358 using siRNA. […] In order to determine which STAT was most crucial for PD-L1 expression in the context of methylation, cells from each cell line were dosed with (1) no siRNA; (2) Scrambled control; (3) siSTAT1; (4) siSTAT3; (5) IFNg, or (6) siSTAT1, siSTAT3, and IFNg.
# [6] = tested on: PD-L1 expression; assay: PD-L1 expression after IFNg and/or STAT1 and STAT3 siRNA knockdown in A427 and H358 (FIG. 4C); conditions: H358 (unmethylated)
# Protocol: as §3
# Next, the relationship between PD-L1 promoter methylation and the IFNg/JAK/STAT pathway was investigated in A427 and H358 using siRNA. […]
# [7] = tested on: STAT1 near CpG1 in the PD-L1 promoter; assay: ChIP-Seq: binding of STAT1 near CpG1 in the PD-L1 promoter; conditions: H358, methylation at PD-L1 promoter LOW; IFNγ stimulation
# Protocol: (§4) NSCLC cell lines were grown to the proper confluency, and treated cells were fixed with 1% formaldehyde for 15 min and quenched with 0.125 M glycine. Chromatin was isolated by the addition of lysis buffer and disruption with a Dounce homogenizer. Lysates were sonicated, and the DNA was sheared to an average length of 300-500 bp. Genomic DNA (Input) was prepared by treating aliquots of chromatin with RNase, proteinase K, and heat for de-crosslinking. Treatment was followed by ethanol precipitation. Pellets of genomic DNA were resuspended and the resulting DNA was quantified on a NanoDrop spectrophotometer. Extrapolation to the original chromatin volume allowed quantitation of the total chromatin yield.
# (§5) An aliquot of chromatin (30 μg) was pre-cleared with protein A agarose beads (Invitrogen). […]
# (§6) Illumina sequencing libraries were prepared from the ChIP and Input DNAs by the standard consecutive enzymatic steps of end-polishing, dA-addition, and adaptor ligation. After a final PCR amplification step, the resulting DNA libraries were quantified and sequenced on HiSeq 2500 or NexSeq 500. Sequences (50 nt reads, single end or 75 nt reads, single end) were aligned to the human genome (hg19) using the BWA algorithm. […] Peak locations were determined using the MACS algorithm (v1.4.2.) with a cutoff of pvalue=1×10^−7. […]
# [8] = tested on: STAT3 near CpG1 in the PD-L1 promoter; assay: ChIP-Seq: binding of STAT3 near CpG1 in the PD-L1 promoter; conditions: H358, methylation at PD-L1 promoter LOW; IFNγ stimulation
# Protocol: as §4, §5, §6
# [9] = A427 following stimulation with IFNg (FIG. 4C)
compound,measurement,setting,value
"Nc1ncn([C@H]2C[C@H](O)[C@@H](CO)O2)c(=O)n1 [5-aza-dC, 5-azacitidine-dC]",PD-L1 RNA expression,"[1]; A427 (high methylation), 3 days of 5-aza-dC treatment",increased
same,PD-L1 RNA expression,"[1]; H322T (medium methylation), 3 days of 5-aza-dC treatment",increased
same,PD-L1 RNA expression,"[1]; H661 (high methylation at CpG1 and CpG5), 3 days of 5-aza-dC treatment",increased
same,PD-L1 RNA expression,"[1]; LXFL529 (high methylation), 3 days of 5-aza-dC treatment",increased
same,PD-L1 expression,[2]; CGP NSCLC cell line panel treated with 5-aza-dC,significantly induced
same,PD-L1 expression,[2]; H1993 (low methylation) following 5-aza-dC treatment,no significant changes
same,PD-L1 expression,[2]; H2073 (intermediate methylation) following 5-aza-dC treatment,significant PD-L1 expression induction
same,induction of methylation-suppressed PD-L1 expression,"[2]; only Group (3) (high methylation) cell lines, 5-aza-dC",significant induction
"CC(/C=C/C(=O)NO)=C\[C@@H](C)C(=O)c1ccc(N(C)C)cc1 [TSA, trichostatin A]",PD-L1 RNA expression,"[1]; H322T only, of H661, LXFL529, A427, H2073, H322T, H1993, 0.1 mM TSA",increase
"interferon gamma [IFNg, interferon gamma, used at 1 ng/mL to stimulate cells]",PD-L1 RNA expression,[1]; A427 (high methylation) after IFNg stimulation,0.012 2^−DCt
same,PD-L1 RNA induction,"[1]; A427, H322T, H292 and H358 stimulated with IFNg",increases
same,PD-L1 RNA expression,[1]; H292 (low methylation) after IFNg stimulation,0.102 2^−DCt
same,PD-L1 RNA expression,"[1]; H322T (medium methylation) after IFNg stimulation, baseline 0.018",1.356 2^−DCt
same,PD-L1 RNA expression,"[1]; H358 (low methylation, high baseline) after IFNg stimulation",no significant changes
same,PD-L1 protein expression,[3]; A427 following IFNg treatment,remained low
same,PD-L1 protein expression increase,"[3]; H292 following IFNg treatment, vs baseline",3-4 fold
same,PD-L1 protein expression increase,"[3]; H322T following IFNg treatment, compared to baseline levels",more than 48 fold
same,PD-L1 protein expression increase,"[3]; H358 following IFNg treatment, vs baseline",3-4 fold
same,surface PD-L1 protein levels,"[3]; all four cell lines (A427, H322T, H292, H358) following IFNg treatment",increased
same,induction of activated STAT1,[4]; [9],strong induction
same,p-STAT1 activation,"[4]; all four cell lines (A427, H322T, H292, H358) following IFNg stimulation",robust
same,induction of activated STAT3,[5]; [9],strong induction
same,p-STAT3-Y705,"[5]; H292, following 30 min IFNg treatment",constitutively activated
same,p-STAT3-5727 activation,"[5]; H358, before and after stimulation, early and late timepoints",did not show p-STAT3-5727 activation
same,p-STAT3-Y705,"[5]; H358, by 24 hrs following IFNg stimulation",lost
same,Activation of the JAK/STAT signaling pathway,"[5]; all cell lines except H358, by 24 hrs IFNg",observed
same,PD-L1 expression,[6],further induced
same,Binding (chIP STAT1),[7],bind and YES
same,Binding (chIP STAT3),[8],bound and YES

# Reference: patent US11254987B2, “PD-L1 promoter methylation in cancer” (Genentech, Inc., priority 2015, dated 2022)
